Experimental data: US20200256853A1, “Models of Reconstructed Sensitive Skin” (Laboratoires Expanscience, priority 2017, published 2020)

Key:
Type in all cases: cell-based
[1] = system: reconstructed human epidermises; experiment: Determination of polyunsaturated fatty acids (PUFAs) in reconstructed epidermises (GC/MS), Example 2; conditions: Lactic acid 0.6%
Experimental: (§1) Reconstructed human epidermises were obtained from the keratinocytes of a donor using the method derived from Poumay et al. (Arch Dermatol Res 2004; 296:203-11). After 2 days of immersion culture, the reconstructed human epidermises were cultured at the air/liquid interface for 10 days.
(§2) Screening of polyunsaturated fatty acids (PUFAs) expressed by the epidermis was carried out by GC/MS analysis of samples obtained after grinding the epidermises (n=2).
(§3) The amounts were normalized by C16:0 (palmitic acid), which is representative of the overall lipid content of the epidermis.

[2] = system: reconstructed human epidermises; experiment: Intracellular determinations of inflammatory markers (ELISA), Example 2; conditions: Lactic acid 0.6%
Experimental: as §1
(§4) Intracellular amounts of IL-1α, IL8 and IL1-RA were determined by ELISA (R&D Systems) in ground epidermis (n=2).

[3] = system: reconstructed Sensitive Skin model (reconstructed human epidermises treated with 0.6% lactic acid); experiment: Determinations of released inflammatory mediators (ELISA) in reconstructed Sensitive Skin model, Example 3
Experimental: (§5) Reconstructed human epidermises were obtained from the keratinocytes of a […] donor using the method derived from Poumay et al. (Arch Dermatol Res 2004; 296:203-11). After 2 days of immersion culture, the reconstructed human epidermises were cultured at the air/liquid interface for 10 days.
(§6) Epidermises at differentiation day 10 was treated or not (control) systemically with the test compounds and incubated for 24 hours.
(§7) The amount of inflammatory mediators IL-1alpha (IL1α), IL-8 and PGE2 present in skin culture supernatants was evaluated using ELISA kits (R&D Systems). • Evaluations of intracellular inflammatory markers IL-1α, IL8 and IL1-RA (n=2)

[4] = system: reconstructed Sensitive Skin model (reconstructed human epidermises treated with 0.6% lactic acid); experiment: Determination of PUFAs (GC/MS) in reconstructed Sensitive Skin model, Example 3
Experimental: as §2, §3, §5, §6
(§8) Same protocol as described in Example 2. • Determination of Poly-Unsaturated Fatty Acids (PUFAs) (n=2)
Same protocol as described in Example 2.

[5] = system: reconstructed human epidermises; experiment: Viability of reconstructed epidermises (MTT); conditions: Lactic acid 0.6% topical, 48 h; control 100%; donor
Experimental: as §1
The viability of the epidermises was assessed by an MTT metabolism test (n=2). The optical density (OD) at 540 nm is proportional to the amount of living cells and their metabolic activity.

[6] = system: reconstructed human epidermises; experiment: Gene expression in reconstructed epidermises (qRT-PCR); conditions: Lactic acid 0.6%; control = 100
Experimental: Reconstructed human epidermises were obtained from the keratinocytes of a donor using the method derived from Poumay et al. (Arch Dermatol Res 2004; 296:203-11). After 2 days of immersion culture, the reconstructed human epidermises were cultured at the air/liquid interface for 10 days. […] Gene expression of inflammatory markers and of markers of innate immunity and defense was evaluated by real-time quantitative PCR (qRT-PCR) on messenger RNAs extracted from epidermis (n=2). Gene expression of the innate immunity and defense markers, beta-defensin 2 hBD2, or Toll-like receptor 2, was also evaluated in the same way. The gene expression analysis was performed in duplicate using a PCR array. The quantitative analysis of gene expression was based on the analysis of threshold cycles; relative expression (RE) was expressed in arbitrary units according to the following formula: RE=(½ number of cycles)×10^6

[7] = system: reconstructed human epidermises; experiment: Immunolabeling of involucrin in reconstructed epidermis; conditions: Lactic acid 0.6%; fluorescence intensity vs. control
Experimental: Reconstructed human epidermises were obtained from the keratinocytes of a donor using the method derived from Poumay et al. (Arch Dermatol Res 2004; 296:203-11). After 2 days of immersion culture, the reconstructed human epidermises were cultured at the air/liquid interface for 10 days. […] On the other hand, involucrin was stained by immunofluorescence (Alexa-488; green dye), the nuclei were stained by propidium iodide (red dye). The involucrin staining was quantified by measuring the fluorescence intensity reported on the surface of the living layers of the epidermis.

[8] = system: reconstructed human epidermises; experiment: Determinations of released inflammatory markers, Example 2; conditions: Lactic acid 0.6%
Experimental: Reconstructed human epidermises were obtained from the keratinocytes of a donor using the method derived from Poumay et al. (Arch Dermatol Res 2004; 296:203-11). After 2 days of immersion culture, the reconstructed human epidermises were cultured at the air/liquid interface for 10 days. […] The amount of inflammatory markers present in culture supernatants was assessed (n=6) using CBA kits (BD Biosciences) for IL-1 alpha (IL1α) and IL-8; and ELISA kits for VEGF (R&D Systems) and PGE2 (Enzo).

[9] = system: reconstructed Sensitive Skin model (reconstructed human epidermises treated with 0.6% lactic acid); experiment: Intracellular measurements of inflammatory mediators (ELISA) in reconstructed Sensitive Skin model, Example 3
Experimental: as §4, §5, §6, §7, §8

[10] = Lactic acid 0.6%, change vs. control

SMILES: CC(O)C(=O)O (stereo not shown) [Lactic acid, lactic acid]
- C18:1 Change vs. control [1]: +20%
- C18:1 amount normalized to C16:0 [1]: 0.226
- C18:2 LA Change vs. control [1]: +19%
- C18:2 LA amount normalized to C16:0 [1]: 0.216
- C20:4 AA Change vs. control [1]: +42%
- C20:4 AA amount normalized to C16:0 [1]: 0.050
- Intracellular IL1-RA Change vs. control [2]: +1242%
- Intracellular IL1-alpha Change vs. control [2]: +806%
- Intracellular IL8 Change vs. control [2]: +390%
- Intracellular IL1-RA ([2]; 48 h): 31243 pg/mg protein
- Intracellular IL1-alpha ([2]; 48 h): 794 pg/mg protein
- Intracellular IL8 ([2]; 48 h): 52.1 pg/mg protein
- Released IL1-alpha Mean ± Standard deviation ([3]; Lactic acid 0.6% topical, 48 h): 68 ± 34 pg/mL
- Released IL8 Mean ± Standard deviation ([3]; Lactic acid 0.6% topical, 48 h): 209 ± 40 pg/mL
- Released PGE2 Mean ± Standard deviation ([3]; Lactic acid 0.6% topical, 48 h): 197 ± 79 pg/mL
- Released IL1-alpha Change [3, 10]: +511%
- Released IL8 Change [3, 10]: +169%
- Released PGE2 Change [3, 10]: +584%
- C18:1 Mean ± SD, amount normalized to C16:0 ([4]; Lactic acid 0.6% topical, 48 h): 0.3880
- C18:2 LA Mean ± SD, amount normalized to C16:0 ([4]; Lactic acid 0.6% topical, 48 h): 0.2130
- C20:4 AA Mean ± SD, amount normalized to C16:0 ([4]; Lactic acid 0.6% topical, 48 h): 0.0575
- C18:1 Change [4, 10]: +110%
- C18:2 LA Change [4, 10]: +134%
- C20:4 AA Change [4, 10]: +113%
- Viability [5]: 66%
- ADCYAP1 gene expression [6]: 117
- DEFB4A gene expression [6]: 6
- IL1A gene expression [6]: 240
- IL1B gene expression [6]: 195
- IL1RN gene expression [6]: 144
- IL8 gene expression [6]: 649
- PLA2G2F2F gene expression [6]: 129
- PTGS2 gene expression [6]: 182
- THBS1 gene expression [6]: 181
- TLR2 gene expression [6]: 54
- TNF gene expression [6]: 105
- VEGF-A gene expression [6]: 138
- Decrease in the expression level of involucrin [7]: −22%
- Released IL1-alpha Change vs. control [8]: +221%
- Released IL8 Change vs. control [8]: +84%
- Released PGE2 Change vs. control [8]: +207%
- Released VEGF Change vs. control [8]: +156%
- Released IL1-alpha ([8]; 48 h, culture supernatant): 23 ± 7 pg/mL
- Released IL8 ([8]; 48 h, culture supernatant): 120 ± 18 pg/mL
- Released PGE2 ([8]; 48 h, culture supernatant): 149 ± 36 pg/mL
- Released VEGF ([8]; 48 h, culture supernatant): 1109 ± 45 pg/mL
- Intracellular IL1-alpha Mean ± SD ([9]; Lactic acid 0.6% topical, 48 h): 1044 ± 123.0 pg/mg protein
- Intracellular IL1RA Mean ± SD ([9]; Lactic acid 0.6% topical, 48 h): 25750 ± 1974 pg/mg protein
- Intracellular IL8 Mean ± SD ([9]; Lactic acid 0.6% topical, 48 h): 79.20 ± 7.715 pg/mg protein
- Intracellular IL1-alpha Change [9, 10]: +277%
- Intracellular IL1RA Change [9, 10]: +394%
- Intracellular IL8 Change [9, 10]: +113%
